Measurements published in patent US8735433B1, “Aryl oxadiazole derivatives as sphingosine 1-phosphate (S1P) receptor modulators” (Allergan, Inc., priority 2012, dated 2014).

Molecular target: T1, human S1P1 receptor (Homo sapiens, UniProt P21453)
T1 construct: expressed in transfected cells; membrane preparation
Assay: GTP γ35S binding assay for S1P1 activity
Assay type: biochemical
Conditions: membranes of cells stably expressing the S1P1 receptor, test compounds 0.08 to 5,000 nM, 30 min at 25° C.
Procedure: Compounds were synthesized and tested for S1P1 activity using the GTP γ^35S binding assay. These compounds may be assessed for their ability to activate or block activation of the human S1P1 receptor in cells stably expressing the S1P1 receptor.
GTP γ^35S binding was measured in the medium containing (mM) HEPES 25, pH 7.4, MgCl2 10, NaCl 100, dithitothreitol 0.5, digitonin 0.003%, 0.2 nM GTP γ^35S, and 5 μg membrane protein in a volume of 150 μl. Test compounds were included in the concentration range from 0.08 to 5,000 nM unless indicated otherwise. Membranes were incubated with 100 μM 5′-adenylylimmidodiphosphate for 30 min, and subsequently with 10 μM GDP for 10 min on ice. Drug solutions and membrane were mixed, and then reactions were initiated by adding GTP γ^35S and continued for 30 min at 25° C. Reaction mixtures were filtered over Whatman GF/B filters under vacuum, and washed three times with 3 mL of ice-cold buffer (HEPES 25, pH7.4, MgCl2 10 and NaCl 100). Filters were dried and mixed with scintillant, and counted for ^35S activity using a β-counter. Agonist-induced GTP γ^35S binding was obtained by subtracting that in the absence of agonist. Binding data were analyzed using a non-linear regression method. In case of antagonist assay, the reaction mixture contained 10 nM S1P in the presence of test antagonist at concentrations ranging from 0.08 to 5000 nM.

T1 sequence (P21453 whole entry): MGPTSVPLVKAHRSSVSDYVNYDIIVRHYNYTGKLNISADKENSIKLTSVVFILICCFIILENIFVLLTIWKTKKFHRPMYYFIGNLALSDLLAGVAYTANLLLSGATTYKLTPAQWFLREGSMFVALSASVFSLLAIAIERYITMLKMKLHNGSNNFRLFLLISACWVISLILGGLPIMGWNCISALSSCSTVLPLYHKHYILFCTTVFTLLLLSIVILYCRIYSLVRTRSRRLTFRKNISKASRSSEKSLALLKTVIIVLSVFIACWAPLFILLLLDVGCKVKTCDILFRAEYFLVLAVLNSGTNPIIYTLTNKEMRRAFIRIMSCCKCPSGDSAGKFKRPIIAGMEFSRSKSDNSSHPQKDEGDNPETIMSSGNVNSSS

SMILES	EC50 [nM]
Cc1ccc(CC(c2nc(-c3ccc(CCC(N)(CO)CO)cc3)no2)c2cccs2)cc1C (stereo not drawn)	1210
Cc1ccc(CC(c2cccc(Cl)c2)c2nc(-c3ccc(CCC(N)(CO)CO)cc3)no2)cc1C (stereo not drawn) [2-amino-2-[2-(4-{5-[1-(3-chlorophenyl)-2-(3,4-dimethylphenyl)ethyl]-1,2,4-oxadiazol-3-yl}phenyl)ethyl]propane-1,3-diol]	175
Cc1ccc(CC(c2cc(F)cc(F)c2)c2nc(-c3ccc(CCC(N)(CO)CO)cc3)no2)cc1C (stereo not drawn) [Compound 1, 2-amino-2-[2-(4-{5-[1-(3,5-difluorophenyl)-2-(3,4-dimethylphenyl)ethyl]-1,2,4-oxadiazol-3-yl}phenyl)ethyl]propane-1,3-diol]	87.2
